Laboratory results taken from patent publication US9708307B2, “Heterocyclic acetamide compound” (ASTELLAS PHARMA INC., priority 2013, dated 2017).

Experiments:
[1] = molecular target: T1, dopamine D1 receptor (Homo sapiens, UniProt P21728); experiment: Evaluation of positive allosteric modulating activity: leftward shift of dopamine dose-response curve (cAMP) in CHO cells stably expressing human dopamine D1 receptor; type: cell-based; conditions: extrapolated by linear function from dopamine EC50 at each test drug concentration
T1 construct: expressed in transfected cells
T1 sequence (P21728 whole entry): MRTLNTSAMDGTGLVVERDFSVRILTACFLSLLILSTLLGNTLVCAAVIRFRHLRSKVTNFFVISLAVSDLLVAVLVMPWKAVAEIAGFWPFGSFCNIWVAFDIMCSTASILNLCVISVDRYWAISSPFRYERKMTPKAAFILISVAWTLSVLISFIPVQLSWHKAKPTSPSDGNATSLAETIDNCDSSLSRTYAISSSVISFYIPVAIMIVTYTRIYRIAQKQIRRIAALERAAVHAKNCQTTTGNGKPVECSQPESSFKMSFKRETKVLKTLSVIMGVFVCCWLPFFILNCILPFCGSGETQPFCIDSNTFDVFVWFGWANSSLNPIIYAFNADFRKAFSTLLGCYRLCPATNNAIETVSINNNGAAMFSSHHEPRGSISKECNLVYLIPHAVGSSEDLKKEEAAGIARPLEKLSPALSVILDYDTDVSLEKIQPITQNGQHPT
Experimental: The composition of a buffer used in Test Example 1 is as follows.
Buffer for assay=αMEM containing 1 μM IBMX.
Buffer for dilution=αMEM containing 1 μM IBMX and 0.8 mM ascorbic acid.
The positive allosteric modulating activity of the compound of the present invention was evaluated according to the ratio of the leftward shift in a dopamine dose-response curve.
The leftward shift means that a dose-response curve of dopamine, in which the logarithm of a dose is on the horizontal axis (X-axis) and a response (cAMP concentration in this test) is on the vertical axis (Y-axis), shifts in parallel in the negative direction of the X-axis by the administration of a positive allosteric modulator.
The coding sequences of a dopamine D1 receptor in a human (Accession No.: NM_000794.3) were amplified by PCR and subcloned into a pEF-BOS vector. The resulting construct was transfected to CHO (-dhrf) cells (ATCC No.: CRL-9096) using Lipofectamine 2000 (Invitrogen Inc.). The clones stably transfected were obtained by selection using 100 nM MTX. The obtained cell clones were maintained in αMEM containing 10% FBS, 1 mg/mL penicillin, and 1 U/streptomycin.
Dose-Response Curve of Dopamine Using test drug was drawn on the basis of the following experiments.
A buffer for assay of a test drug was serially diluted (concentrations 0.48 μM to 40 μM, 3-fold dilutions). The serially diluted solutions of the test drug were dispensed in each portion of 2.5 μL to black 384-well plates (Becton Dickinson, Inc.).
CHO cells stably expressing a dopamine D receptor of a human were seeded in each portion of 5 μL in each well at a density of 5000 cells/well, centrifuged in a centrifuge for a plate (05PR-22, Hitachi Co., Ltd., 800 rpm), and then allowed to stand for 10 minutes.
Serially diluted solutions of dopamine were prepared from a DMSO solution of dopamine (Sigma Co.) with a buffer for dilutions (concentrations 0.018 μM to 13.2 μM, 3-fold dilutions), and the serially diluted solutions of dopamine were dispensed in portions of 2.5 μL to each well of a plate.
The plate was stirred using a plate shaker (Sanko Junyaku (mx-5)) and then allowed to stand at room temperature for 20 minutes (final concentration: test drug 0 μM to 10 μM, dopamine 0 μM to 3.3 μM, 3-fold dilutions).
cAMP was quantified using a cAMP femto 2 kit (Sceti Medical Labo K. K.) by the method described in the materials appended in the kit. A kit reagent cAMP-d2 solution and a kit reagent Anti cAMP-Cryptate solution were added in each portion of 5 μL to each well of the above-described plate, and the reaction was stopped. After incubating the plate at room temperature for 1 hour, the fluorescent intensity was measured (an excitation wavelength of 320 nm and a fluorescent wavelength of 665 nm) using a plate reader (2103 Multilabel Reader (registered trademark EnVision), PerkinElmer, Inc.).
As a control group, a well without addition of dopamine was taken as 0% and a well with a dopamine final concentration of 3.3 μM was taken as 100%.
The dose-response curve of dopamine was drawn on the basis of the experiment carried out in the same manner as in (1) without the addition of a test drug.
In order to quantitatively compare the activity of the test drug, the activity was evaluated by EC50 2-fold potentiation.
In the present specification, “EC50 2-fold potentiation” is the test drug concentrations that enhanced the EC50 two-fold in the dose-response curve (2) of dopamine.
From the dose-response curve (1) of dopamine in the presence of the test drug at each concentration, the EC50 at the test drug concentration was obtained. From the correlation between the concentration of the test drug and the EC50, EC50 2-fold potentiation was calculated by extrapolation by a linear function (straight line).
Further, the EC50 value was calculated from the dose-response curves (1) and (2) of dopamine, using non-linear regression analysis. […]

[2] = system: ddY male mice; experiment: Y-maze test: improvement effect on cognitive impairment caused by MK-801 (spontaneous alternation behavior); type: in vivo; conditions: oral, once, one hour before test, MK-801 0.15 mg/kg i.p. 20 minutes before
Experimental: The improvement effect of the compound of the present invention on cognitive impairment was evaluated using a Y-maze test which is an experiment system of alternation behavior.
As a Y-maze, a maze, in which three tracks having a length of one arm of 40 cm, a height of a wall of 13 cm, a width of a bottom of 3 cm, and a width of a top of 10 cm are each joined in the Y shape at a degree of 120, was used. […]
The above-described mice were allowed to explore freely for 8 minutes after being placed at an end of one track in the Y-maze, and the track and the sequence in which the mice entered were recorded. The number of times the mice entered within the measurement time was counted, and taken as a total entry number. Among these, a combination in which the mice successively entered different three tracks (for example, when taking three arms as a, b, and c, respectively, a case where the order of the arm that entered was “abccbacab” was counted as 4, inclusive of overlapping) was considered as a spontaneous alternation behavior number. The spontaneous alternation behavior rate was calculated by the following calculation and used as an index for a spontaneous alternation behavior: Spontaneous alternation behavior rate=spontaneous alternation behavior number/(total number of entries−2)×100 […]
The measured values were expressed in average values±standard errors for each group. […]

SMILES | Data 1: EC50 2-fold potentiation (test drug concentration that enhanced the dopamine EC50 two-fold) [1] [nM] | Data 2: effective concentration (improved the spontaneous alternation behavior) [2] [mg/kg]
CN(Cc1nc2cc(C(F)(F)F)ccc2[nH]1)C(=O)Cn1c(=O)oc2ccc(Cl)cc21.Cl [Example 1, 2-(5-chloro-2-oxo-1,3-benzoxazol-3 (2H)-yl)-N-methyl-N-{[5-(trifluoromethyl)-1H-benzimidazol-2-yl]methyl}acetamide hydrochloride] | 460 | 0.1
COc1cc2[nH]c(CN(C)C(=O)Cn3c(=O)oc4ccc(Cl)cc43)nc2cc1Br.Cl [Example 15] | 740 | –
CN(Cc1nc2c(C(F)(F)F)cccc2[nH]1)C(=O)Cn1c(=O)oc2ccc(Cl)cc21.Cl [Example 16] | 620 | –
CN(Cc1nc2cc(C(F)(F)F)ccc2[nH]1)C(=O)Cn1c(=O)oc2ccc(Cl)c(F)c21 [Example 17] | 470 | –
CN(Cc1nc2cc(Br)ccc2[nH]1)C(=O)Cn1c(=O)oc2ccc(Cl)cc21 [Example 20] | 440 | 1.0
CN(Cc1nc2cc(C3CC3)ccc2[nH]1)C(=O)Cn1c(=O)oc2ccc(C(F)(F)F)cc21 [Example 22] | 390 | –
CN(Cc1nc2cc(Cl)ccc2[nH]1)C(=O)Cn1c(=O)oc2ccc(C(F)(F)F)cc21 [Example 25] | 450 | –
CN(Cc1nc2cc(Cl)ccc2[nH]1)C(=O)Cn1c(=O)oc2ccc(OC(F)(F)F)cc21 [Example 26] | 370 | –
CN(Cc1nc2cc(C(F)(F)F)ccc2[nH]1)C(=O)Cn1c(=O)oc2ccc(C(F)(F)F)c(F)c21 [Example 27] | 460 | –
CN(Cc1nc2cc(OC(F)(F)F)ccc2[nH]1)C(=O)Cn1c(=O)oc2ccc(Cl)cc21 [Example 31] | 1100 | –
CN(Cc1nc2c(C(F)(F)F)cccc2[nH]1)C(=O)Cn1c(=O)oc2ccc(C(F)(F)F)cc21 [Example 39] | 400 | –

Continued, in another order:

Data 1: EC50 2-fold potentiation (test drug concentration that enhanced the dopamine EC50 two-fold) [1] [nM] | SMILES | Data 2: effective concentration (improved the spontaneous alternation behavior) [2] [mg/kg]
100 | CN(Cc1nc2cc(Cl)c(Cl)cc2n1CCO)C(=O)Cn1c(=O)oc2ccc(Cl)cc21.Cl [Example 7, 2-(5-chloro-2-oxo-1,3-benzoxazol-3 (2H)-yl)-N-{[5,6-dichloro-1-(2-hydroxyethyl)-1H-benzimidazol-2-yl]methyl}-N-methylacetamide hydrochloride] | –
1000 | CN(Cc1nc2cc(Cl)ccc2[nH]1)C(=O)Cn1c(=O)oc2ccc(Cl)cc21.Cl [Example 12] | –
1700 | CN(Cc1nc2cc(Cl)c(F)cc2[nH]1)C(=O)Cn1c(=O)oc2ccc(Cl)cc21.Cl [Example 14] | –
270 | Cc1cc2nc(CN(C)C(=O)Cn3c(=O)oc4ccc(Cl)cc43)[nH]c2cc1Cl [Example 30] | –
990 | CN(Cc1nc2c(Cl)cccc2[nH]1)C(=O)Cn1c(=O)oc2ccc(Cl)cc21 [Example 34] | –
300 | CN(Cc1nc2cc(Cl)c(Cl)cc2n1CC(C)(C)O)C(=O)Cn1c(=O)oc2ccc(Cl)cc21 [Example 37] | –
